Measurements as given in patent US20250090557A1 (priority 2020, published 2025).
“Also recorded” adds a separate entry of the source. Structures can show the parent of a compound that is named as a salt. Where two headings read alike, the source gives them in different places.

Legend:
[1] = test system: Keap1; assay: Keap1 protein levels in Calu3 cells (flow cytometry); assay type: cell-based, human; conditions: infected and uninfected Calu3, pretreatment, data not shown
[2] = test system: Nrf2; assay: Nrf2 protein levels in Calu3 cells (flow cytometry); assay type: cell-based, human; conditions: infected and uninfected Calu3, pretreatment, data not shown
[3] = test system: Calu3 cells
[4] = test system: HO-1; assay: HO-1 protein levels in Calu3 cells (flow cytometry); assay type: cell-based, human
[5] = test system: SARS-CoV-2; assay type: cell-based
[6] = test system: IL-6; assay type: cell-based, human
[7] = test system: uninfected cultures; conditions: 10-1000 nM
[8] = Calu3, 0.25 μM pretreatment, data not shown

COC(=O)/C=C/C(=O)OC [DMF, dimethyl fumarate]
protein levels of Keap [1]: reduced protein levels of Keap
protein levels of Nrf2 [2]: did not impact protein levels of Nrf2
cytotoxicity (XTT assay) ([3]; uninfected Calu3, 100 μM, 24 h): cytotoxic
HO-1 protein levels ([4]; Calu3, pretreatment 10 μM, data not shown): increased HO-1 protein levels
viral titers / antiviral effect vs vehicle control (TCID50) ([5]; Calu3, 10 μM DMF alone, FIG. 11-a): did not produce an observable antiviral effect; also recorded: did not reduce viral titers
release of progeny SARS-CoV-2 virus particles to the cell supernatant (TCID50 assay) ([5]; Calu3, pretreatment with 10 μM DMF for 24 h, FIG. 5-a): reduction in subsequent release of progeny SARS-CoV-2 virus particles
release of IL-6 from infected cells (ELISA) ([6]; Calu3, pretreatment 10 μM for 24 h): reduction in subsequent release of IL-6

CCCCCCCCCC[P+](c1ccccc1)(c1ccccc1)c1ccccc1.[Br-] [DTPP]
cytotoxicity (XTT assay) ([3]; uninfected cells, 1000 nM): not cytotoxic
antiviral activity (TCID50 assay) ([5]; Calu3, 1000 nM): Antiviral activity was observed

CC1(C)CC(NC(=O)C[P+](c2ccccc2)(c2ccccc2)c2ccccc2)CC(C)(C)N1[O] [Mito-TEMPO]
cytotoxicity (XTT assay) [7]: no observed cytotoxicity

brusatol
protein levels of Keap [1]: increased protein levels of Keap
protein levels of Nrf2 [2]: reduced protein levels of Nrf2
HO-1 protein levels [4]: increased the HO-1 protein levels
impact on the effect of Mito-MES on HO-1 protein levels ([4]; Calu3, 0.25 μM, data not shown): did not have an impact on the effect of Mito-MES on HO-1 protein levels
effect on the antiviral effect of DMF and Mito-MES (TCID50) ([5]; Calu3, 0.25 μM pretreatment for 24 h): inhibited the antiviral effect of both DMF alone and Mito-MES
SARS-CoV-2 infection (flow cytometry) [5, 8]: directly enhanced SARS-CoV-2 infection
effect on the reduction in percent infected cells induced by Mito-MES and DMF [5, 8]: attenuated the reduction in the percent of infected Calu3 cells
release of progeny SARS-CoV-2 virus particles to the cell supernatant (TCID50) ([5]; Calu3, pretreatment with 0.25 μM): significantly increased subsequent release of progeny SARS-CoV-2 virus particles
effect on the anti-inflammatory effect of Mito-MES (IL-6 ELISA) ([6]; Calu3, 0.25 μM): inhibited the anti-inflammatory effect of Mito-MES
release of IL-6 to the cell supernatant from infected cells (ELISA) ([6]; Calu3, pretreatment 0.25 μM): significantly increased subsequent release of IL-6
